{"source": "patent US11872209B2", "about": "“Treatment for primary biliary cholangitis” (Zydus Lifesciences Limited, priority 2016, dated 2024)", "test_system": "carbon tetrachloride-induced liver fibrosis", "assay": "Carbon tetrachloride-induced liver fibrosis in male Sprague Dawley rats", "format": "in vivo", "settings": "0.4 and 4 mg/kg/day orally for 4 weeks with continued CCl4 injections", "protocol": "To assess the effect of Compound of formula (Ia) on the progression of established hepatic fibrosis, fibrosis was induced in rats by twice weekly carbon tetrachloride (CCl4) injections for 2 weeks via an intraperitoneal route. Compound (Ia) (0.4 and 4 mg/kg/day), pioglitazone (10 mg/kg/day), fenofibrate (100 mg/kg/day) or vehicle (Tween 80 and 0.5% sodium salt of carboxymethylcellulose at ratio of 0.5:99.5) was then orally administered for 4 weeks to animals concomitantly with continued CCl4 injections. After 4 weeks of treatment, blood samples were collected 1 h post-dose, for estimation of non-fasted serum ALT and other serum parameters. All the animals were sacrificed; liver was quickly removed, weighed and fixed in 10% formalin for histological analysis or snap frozen in liquid nitrogen for other assays. Light microscopic examination of liver tissue was performed using standard hematoxylin and eosin (H&E) staining. Hepatic fibrosis was accessed by Masson's trichrome staining method.", "note": "“Also recorded” adds a separate entry of the source. Where a name gives a salt, the structure may show the parent alone."}
{"smiles": "CCO[C@@H](Cc1ccc(OCCn2c(C)ccc2-c2ccc(SC)cc2)cc1)C(=O)O", "note": "[Compound (Ia), saroglitazar magnesium salt]", "values": [{"measurement": "Effect on CCl4-induced liver fibrosis", "setting": "after 2 weeks of CCl4, listed as Compound of formula (Ia)", "result": "protected the animals from further deterioration and exhibited a dose-dependent reversal of CCl4-induced liver fibrosis; also recorded: protected the animals from further deterioration and showed dose dependent reversal of CCl4-induced liver fibrosis"}, {"measurement": "Microscopic quantification of fibrosis (H&E and Masson's trichrome staining of liver tissues)", "setting": "FIG. 1", "result": "stopped the progression of established liver fibrosis and accelerated liver recovery"}]}
